# “And” between values parts separate entries of the source, which are not always exact repeats. Equal entries are not always repeated.
# Assays:
# [1] = test system: primary human hepatocytes
# [2] = test system: primary human hepatocytes; format: in vitro ADME
# [3] = test system: primary mouse hepatocytes
# [4] = test system: intracellular proteins of primary human hepatocytes
# rainbow trout = details: in vivo; cited from earlier work
smiles,measurement,setting,value
"COc1cc2c(c3oc(=O)c4c(c13)CCC4=O)[C@@H]1C=CO[C@@H]1O2 [AFB1, Aflatoxin B1]",AFB1 remaining in culture medium,primary rat hepatocytes,3.48 µM
same,AFB1 remaining in culture medium,[1],8.54 µM
same,concentration in culture medium,[1],636 nM
same,estimated intracellular concentration of AFB1,[2],1 mM
same,AFB1 in culture medium,[3],no longer detectable
same,AFB1 remaining in culture medium,[3],0.2 µM
same,time up to which AFB1 was detectable in culture medium,[3],up to 6 h
"COc1cc2c(c3oc(=O)c4c(c13)CCC4=O)[C@H]1[C@@H](O2)OC(SCC(NC(=O)CCC(N)C(=O)O)C(=O)NCC(=O)O)[C@@H]1O (stereo partly shown) [AFB1-GSH, AFB1-glutathione]",concentration in culture medium,primary rat hepatocytes,72 nM
same,concentration in culture medium (plateau),primary rat hepatocytes,415 nM
same,detection in culture medium,[1],not detected
same,intracellular detection,[2],not detected
"COc1cc(O)c(C2=CC(=O)N(CCCC[C@H](N)C(=O)O)C2)c2oc(=O)c3c(c12)CCC3=O [AFB1-Lys, AFB1-lysine]",AFB1-Lys in proteins of cell lysate,[4],around 1.0 pmol
same,detection in culture medium,primary rat hepatocytes,detected only in trace amounts
"COc1cc2c(c3oc(=O)c4c(c13)CCC4=O)[C@H]1[C@@H](O2)OC(SCC(NC(C)=O)C(=O)O)[C@@H]1O (stereo partly shown) [AFB1-NAC, AFB1-N-acetylcysteine]",detection in culture medium,[1],not detected
"COc1cc2c(c3oc(=O)c4c(c13)CCC4=O)C1(O)C=COC1O2 (stereo not shown) [AFM1, aflatoxin M1]",concentration in culture medium,[1],33 nM and 46 nM
same,maximum concentration in culture medium,[3],353 nM
"O=C1CCc2c1c(=O)oc1c3c(cc(O)c21)O[C@H]1OC=C[C@@H]31 [AFP1, aflatoxin P1]",detection in culture medium,primary rat hepatocytes,detected only in trace amounts
same,detection in culture medium,[1],just formed in trace amounts
same,maximum concentration in culture medium,[3],896 nM
"O=C1CCc2c1c(=O)oc1c3c(cc(O[C@@H]4O[C@H](C(=O)O)[C@@H](O)[C@H](O)[C@H]4O)c21)O[C@H]1OC=C[C@@H]31 [AFP1-Glc, AFP1 glucuronide]",detection of AFP1-Glc,[1],no AFP1-Glc was detectable
same,AFP1-Glc level in mouse samples relative to rat samples,[3],about 100 fold
"COc1cc2c(c3oc(=O)c4c(c13)[C@@H](O)CC4=O)[C@@H]1C=CO[C@@H]1O2 [AFQ1, aflatoxin Q1]",Formation rate,primary rat hepatocytes,87 pmol/h and 74 700 pmol/h
same,concentration in culture medium,primary rat hepatocytes,112 nM
same,maximum concentration in culture medium,[3],25 nM
same,carcinogenic potency relative to AFB1,rainbow trout,about 1%
